Experimental findings from patent publication US12172959B2, “Mono- or di-substituted indole derivatives as dengue viral replication inhibitors” (priority 2015, dated 2024) are described below.

Broadly, the EC50 is the concentration at which the effect is half-maximal. Broadly, the CC50 is the concentration that lowers cell viability or growth by half.

One data set has as its system DENV-2 strain 16681. The experiment in a line: Tetravalent RT-qPCR assay Protocol A, serotype 2. Format: cell-based. The conditions noted are these: Dengue virus, DENV2, 72 h; Protocol A, RT-qPCR serotype 2 16681, Vero cells, day 3; read-out: EC50. The method, then: (§1) The antiviral activity of the compounds of the invention was tested against DENV-1 strain TC974#666 (NCPV; Table 6), DENV-2 strain 16681 (Table 7), DENV-3 strain H87 (NCPV; Table 8) and DENV-4 strains H241 (NCPV; Table 9A) and SG/06K2270DK1/2005 (Eden; Table 9B) in a RT-qPCR assay. Therefore, Vero cells were infected with either DENV-1, or -2, or -3, or -4 in the presence or absence of test compounds. At day 3 post-infection, the cells were lysed and cell lysates were used to prepare cDNA of both a viral target (the 3′UTR of DENV; Table 2) and a cellular reference gene (β-actin, Table 2). Subsequently, a duplex real time PCR was performed on a Lightcycler480 instrument. The generated Cp value is inversely proportional to the amount of RNA expression of these targets. Inhibition of DENV replication by test compound results in a shift of Cp's for the 3′UTR gene. On the other hand, if a test compound is toxic to the cells, a similar effect on β-actin expression will be observed. The comparative ΔΔCp method is used to calculate EC50, which is based on the relative gene expression of the target gene (3′UTR) normalized with the cellular housekeeping gene (β-actin).
(§2) The culture medium consisted of minimal essential medium supplemented with 2% of heat-inactivated fetal calf serum, 0.04% gentamycin (50 mg/mL) and 2 mM of L-glutamine. Vero cells, obtained from ECACC, were suspended in culture medium and 75 μL/well was added in 96-well plates (10000 cells/well), which already contain the antiviral compounds. […] In addition, each plate contains wells which are assigned as virus controls (containing cells and virus in the absence of compound) and cell controls (containing cells in the absence of virus and compound). Once the cells were added in the plates, the plates were incubated in a fully humidified incubator (37° C., 5% CO2) until the next day. Dengue viruses serotype-1, 2, 3 and 4 were diluted in order to obtain a Cp of ˜22-24 in the assay. Therefore, 25 μL of virus suspension was added to all the wells containing test compound and to the wells assigned as virus control. In parallel, 25 μL of culture medium was added to the cell controls. Next, the plates were incubated for 3 days in a fully humidified incubator (37° C., 5% CO2). After 3 days, the supernatant was removed from the wells and the cells were washed twice with ice-cold PBS (˜100 μL). The cell pellets within the 96-well plates were stored at −80° C. for at least 1 day. Next, RNA was extracted using the Cells-to-CT™ lysis kit, according to the manufacturer's guideline (Life Technologies). The cell lysates can be stored at −80° C. or immediately used in the reverse transcription step.
(§3) In preparation of the reverse transcription step, mix A (table 3A) was prepared and 7.57 μL/well was dispensed in a 96-well plate. After addition of 5 μL of the cell lysates, a five minute denaturation step at 75° C. was performed (table 3B). Afterwards, 7.43 μL of mix B was added (table 3C) and the reverse transcription step was initiated (table 3D) to generate cDNA.
(§4) Finally, a RT-qPCR mix was prepared, mix C (table 4A), and 22.02 μL/well was dispensed in 96-well LightCycler qPCR plates to which 3 μL of cDNA was added and the qPCR was performed according to the conditions in table 4B on a LightCycler 480.
(§5) Using the LightCycler software and an in-house LIMS system, dose response curves for each compound were calculated and the half maximal effective concentration (EC50) and the half maximal cytotoxic concentration (CC50) were determined.
(In general: Quantitative PCR measures a nucleic acid by following its amplification.)

The next data set has as its system DENV-2 strain NGC. The experiment in a line: Tetravalent RT-qPCR assay Protocol B, serotype 2. Format: cell-based. The conditions noted are these: Dengue virus, DENV2, 96 h, RT-qPCR serotype 2 NGC-Tongalike, 4 days. The method, then:
The antiviral activity of the compounds of the invention was tested against DENV-1 strain Djibouti strain (D1/H/IMTSSA/98/606; Table 6), DENV-2 strain NGC (Table 7), DENV-3 strain H87 (Table 8) and DENV-4 strain SG/06K2270DK1/2005 (Table 9B) in a RT-qPCR assay. Vero-B or Vero-M cells (5×10^4) were seeded in 96-well plates. One day later, culture medium was replaced with 100 μL assay medium containing a 2×, 3× or 5× serial dilution of the compound (concentration range: 50 μg/mL-0.00038 μg/mL, 50 μg/mL-0.0076 μg/mL, and 50 μg/mL-0.00013 μg/mL, respectively) and 100 μL of dengue virus inoculum (DENV). Following a 2 hour incubation period, the cell monolayer was washed 3 times with assay medium to remove residual, non-adsorbed virus and cultures were further incubated for either 4 days (DENV-2 NGC) or 7 days (DENV-1 Djibouti strain D1/H/IMTSSA/98/606, DENV-3 strain H87 prototype, DENV-4 strain H241, and DENV-4 strain EDEN) in the presence of the inhibitor. Supernatant was harvested and viral RNA load was determined by real-time quantitative RT-PCR. The 50% effective concentration (EC50), which is defined as the compound concentration that is required to inhibit viral RNA replication by 50%, was determined using logarithmic interpolation.
RNA was isolated from 100 μL (or in some circumstances 150 μL) supernatant with the NucleoSpin 96 Virus kit (Filter Service, Duren, Germany) as described by the manufacturer. The sequences of the TaqMan primers (DENV-For, DENV-Rev; Table 5) and TaqMan probes (DENV-Probe Table 5) were selected from non-structural gene 3 (NS3) or NS5, of the respective flaviviruses using Primer Express software (version 2.0; Applied Biosystems, Lennik, Belgium). The TaqMan probe was fluorescently labelled with 6-carboxyfluorescein (FAM) at the 5′ end as the reporter dye, and with minor groove binder (MGB) at the 3′ end as the quencher (Table 5). One-step, quantitative RT-PCR was performed in a total volume of 25 μL, containing 13.9375 μL H2O, 6.25 μL master mix (Eurogentec, Seraing, Belgium), 0.375 μL forward primer, 0.375 μL reverse primer, 1 μL probe, 0.0625 μL reverse transcriptase (Eurogentec) and 3 μL sample. RT-PCR was performed using the ABI 7500 Fast Real-Time PCR System (Applied Biosystems, Branchburg, New Jersey, USA) using the following conditions: 30 min at 48° C. and 10 min at 95° C., followed by 40 cycles of 15 s at 95° C. and 1 min at 60° C. The data was analyzed using the ABI PRISM 7500 SDS software (version 1.3.1; Applied Biosystems). For absolute quantification, standard curves were generated using 10-fold dilutions of template preparations of known concentrations.

The subject of another data set is Vero cells. Conditions: African green monkey.
Data set [1] relates to DENV-4 strain SG/06K2270DK1/2005 (Eden). The data set can be described thus: Tetravalent RT-qPCR assay Protocol A, serotype 4 EDEN. Type of data set: cell-based. Conditions: Dengue virus, DENV4, Vero, 72 h. The method, then:
as §1, §2, §3, §4, §5

The nature of a further data set: in vitro. Format: cell-based. The conditions noted are these: African green monkey, CC50. As for the experimental part: as §1, §2, §5

As for `COc1cc(NC(C(=O)c2c[nH]c3cc(F)ccc23)c2ccc(Cl)cc2OC)cc(S(C)(=O)=O)c1` (single isomer, unassigned) [Compound 1A, 2-(4-chloro-2-methoxyphenyl)-1-(6-fluoro-1H-indol-3-yl)-2-((3-methoxy-5-(methylsulfonyl)phenyl)amino)ethanone], the EC50 in the data set with DENV-2 strain 16681 was 0.28 nM; in the data set with DENV-2 strain NGC it was less than 0.27 nM; in data set [1] it was 2.4 nM. In the data set with Vero cells, this molecule had a half-maximal cytotoxic concentration (CC50) of 4300 nM. In “in vitro”, this molecule displayed a 50% cytotoxic concentration (CC50) at 3 days of 5000 nM.
For `COc1cc(NC(C(=O)c2c[nH]c3c(C)c(F)ccc23)c2ccc(Cl)cc2OC)cc(S(C)(=O)=O)c1` (single isomer, unassigned) [Compound 2A, 2-(4-chloro-2-methoxyphenyl)-1-(6-fluoro-7-methyl-1H-indol-3-yl)-2-((3-methoxy-5-(methylsulfonyl)phenyl)amino)ethanone] the same measures were 0.24 nM, less than 0.24 nM, 1.3 nM, 4800 nM and 5300 nM.
Consider `COc1cc(NC(C(=O)c2c[nH]c3cc(OC)c(C)cc23)c2ccc(Cl)cc2OC)cc(S(C)(=O)=O)c1` (single isomer, unassigned) [Compound 4A, 2-(4-chloro-2-methoxyphenyl)-2-((3-methoxy-5-(methyl-sulfonyl)phenyl)amino)-1-(6-methoxy-5-methyl-1H-indol-3-yl)ethanone], for which the results for the EC50 (with DENV-2 strain 16681; in the data set with DENV-2 strain NGC; in data set [1]) were 0.2 nM, 0.32 nM and 0.55 nM, respectively. The CC50 in the data set with Vero cells is 4200 nM.
As to `COc1cc(NC(C(=O)c2c[nH]c3cc(OC)c(F)cc23)c2ccc(Cl)cc2OC)cc(S(C)(=O)=O)c1` (single isomer, unassigned) [Compound 5A, 2-(4-chloro-2-methoxyphenyl)-1-(5-fluoro-6-methoxy-1H-indol-3-yl)-2-((3-methoxy-5-(methylsulfonyl)phenyl)amino)ethanone], the EC50 with DENV-2 strain 16681 was 0.34 nM; in the data set with DENV-2 strain NGC, less than 0.23 nM; in data set [1] it was 2.9 nM. The molecule further registered a cytotoxic concentration (CC50) in the data set on Vero cells of 5000 nM. For the same molecule, the CC50 at 3 days in the data set “in vitro” was found to be 5200 nM.
For `COc1cc(NC(C(=O)c2c[nH]c3c(C)c(OC)ccc23)c2ccc(Cl)cc2OC)cc(S(C)(=O)=O)c1` (single isomer, unassigned) [Compound 6A, 2-(4-chloro-2-methoxyphenyl)-2-((3-methoxy-5-(methyl-sulfonyl)phenyl)amino)-1-(6-methoxy-7-methyl-1H-indol-3-yl)ethanone] the same measures were 0.11 nM, less than 0.24 nM, 0.42 nM, greater than 25000 nM and greater than 10000 nM.
